Consider three compounds from patent US4628083A, “2-hydroxy-5-(arylazo)-benzene alkanoic acids” (Pharmacia AB, priority 1985, dated 1986).

“And” between values parts separate entries of the source, which are not always exact repeats. Equal entries are not always repeated.

Format in all cases: biochemical
The target of assay [1] is T1, prostaglandin-15-dehydrogenase (Rattus norvegicus, UniProt O08699).
T1 construct: cellfree preparations of different organs (containing prostaglandin-15-dehydrogenase); from tissue
T1 sequence (O08699 1-266): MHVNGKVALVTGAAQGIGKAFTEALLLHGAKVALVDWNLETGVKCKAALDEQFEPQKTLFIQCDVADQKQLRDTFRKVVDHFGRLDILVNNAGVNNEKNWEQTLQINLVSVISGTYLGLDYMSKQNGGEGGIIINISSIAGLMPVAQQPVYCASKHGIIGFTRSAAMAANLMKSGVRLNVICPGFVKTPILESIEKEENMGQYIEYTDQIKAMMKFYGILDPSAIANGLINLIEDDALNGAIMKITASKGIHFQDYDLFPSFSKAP
The assay is described as follows: Inhibition of prostaglandin F2α inactivation in cell-free rat organ preparations. To be noted: for inhibition at 50 µM: 50 μM (A 19,9 μg/ml; C 12,8 μg/ml); for inhibition at 2 µM: 2 μM (0,82 μg/ml). As to the method:
(§1) Radioactive prostaglandin F2α was incubated with cellfree preparations of different organs (containing prostaglandin-15-dehydrogenase) according to Hoult and Moore, British Journal of Pharmacology, Vol. 61 (1977), p. 615. After a suitable time the prostaglandins were extracted and separated by chromatography. Then the amount of remaining prostaglandin F2α was compared with the amounts of metabolites. The inhibiting effect was obtained by the addition of the compounds according to the invention during the incubation and comparison with control experiments without such addition. The results may be represented either as a concentration giving 50% inhibition of the prostaglandin inactivation, or as an inhibition in percent at a certain concentration of the studied compound. In the following table the results for some compounds according to the invention are shown compared to the known drug sulfasalazine.

The target in assay [2] is T2, prostaglandin-15-dehydrogenase (Cavia porcellus, UniProt P70684).
T2 construct: cellfree preparations of different organs (containing prostaglandin-15-dehydrogenase); from tissue
T2 sequence (P70684 1-265): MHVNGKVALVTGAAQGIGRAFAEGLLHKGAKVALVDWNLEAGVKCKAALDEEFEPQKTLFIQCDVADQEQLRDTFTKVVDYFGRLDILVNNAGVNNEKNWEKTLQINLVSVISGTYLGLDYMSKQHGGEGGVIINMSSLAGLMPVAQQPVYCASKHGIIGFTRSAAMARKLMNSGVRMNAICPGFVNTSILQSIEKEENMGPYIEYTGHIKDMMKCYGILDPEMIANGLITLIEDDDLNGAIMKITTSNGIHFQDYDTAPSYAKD
Put plainly: Inhibition of prostaglandin F2α inactivation in cell-free guinea pig organ preparations. To be noted: for inhibition at 50 µM: 50 μM (B 20,6 μg/ml; C 12,8 μg/ml); for inhibition at 2 µM: 2 μM (0,82 μg/ml). The method, then:
as §1

The target of assay [3] is T3, prostaglandin-15-dehydrogenase (Homo sapiens, UniProt P15428).
T3 construct: cellfree preparations of different organs (containing prostaglandin-15-dehydrogenase); from tissue; host or cells: human placenta
T3 sequence (P15428 1-266): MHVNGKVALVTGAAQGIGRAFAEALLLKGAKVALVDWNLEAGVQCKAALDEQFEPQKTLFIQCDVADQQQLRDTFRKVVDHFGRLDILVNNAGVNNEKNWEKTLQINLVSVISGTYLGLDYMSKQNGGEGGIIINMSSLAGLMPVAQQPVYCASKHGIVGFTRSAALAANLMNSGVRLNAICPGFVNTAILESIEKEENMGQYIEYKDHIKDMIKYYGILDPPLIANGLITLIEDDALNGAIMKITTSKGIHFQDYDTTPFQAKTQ
The assay is described as follows: Inhibition of prostaglandin F2α inactivation in cell-free human placenta preparation. To be noted: for IC50: Inhibition 50 %, read-out: concentration giving 50% inhibition of the prostaglandin inactivation (converted). As to the method:
as §1

Setting [4] is: relative to compound A (sulfasalazine).

One may read the inhibition as the relative decrease from the control value, in per cent. Read a low inhibition as a response near the control. Regarding `O=C(O)Cc1cc(N=Nc2ccccc2)ccc1O` [C, 2-hydroxy-5-phenylazo-benzeneacetic acid], the inhibition at 50 µM came out at 71.3% in assay [1] (Rat colon) and 45.4% in assay [2] (Guinea pig kidney). In assay [1] (setting [4]), the “activity compared with compound A” value is reported as “significantly more active than compound A”.
Turning to `O=C(O)c1cc(/N=N/c2ccc(S(=O)(=O)Nc3ccccn3)cc2)ccc1O` [A, sulfasalazine, reference compound], in assay [3] (Human placenta), the IC50 is 95 µM and 95.4 µM. In addition, in assay [1] (Rat colon), at 50 µM the inhibition was 47.8%.
As to `O=C(O)Cc1cc(N=Nc2ccc(S(=O)(=O)Nc3ccccn3)cc2)ccc1O` [B, 2-hydroxy-5-[4-[[(2-pyridinyl)amino]sulfonyl]phenylazo]benzeneacetic acid], the inhibition at 50 µM in assay [3] (Human placenta, 50 μM (20,6 μg/ml)) worked out at 87.5%; in assay [2] (Guinea pig kidney), 65.9%. Further, the IC50 in assay [3] (Human placenta) is 1.9 µM and 1.89 µM. The “times as active as the known compound A” value in assay [3] (setting [4]) was 50 times. Besides, the inhibition at 2 µM in assay [1] (Rat colon) is 53.3%; in assay [1] (Rat kidney), 94.1%; in assay [1] (Rat lung) it was 85.2%; in assay [1] (Rat stomach), 67.2%; in assay [2] (Guinea pig colon) it was 58.7%; in assay [2] (Guinea pig duodenum) it was 68.3%. In assay [2] (Guinea pig kidney), this compound displayed an inhibition at 2 µM of 53.8%.
